Laboratory results: paper PMC11345766, “Computational Design of Pore-Forming Peptides with Potent Antimicrobial and Anticancer Activities” (Journal of Medicinal Chemistry, 2024)
Converted amounts (≈) assume the structure as drawn.

How the values were obtained:
HCT-15 = assay: cells; assay type: cell-based, human; conditions: Homo sapiens, HCT-15; Colorectal; RPMI-1640 +10% FCS; 72 hours; read-out: Activity (in M), IC50
Protocol: (§1) The CellTiter-Glo luminescent cell viability assay examining the impact of peptides on 22 different human cell lines was purchased from Reaction Biology Europe GmbH (Germany). Cells were cultured in different media (Table S1), seeded into a flat-bottom 96-well plate, and incubated at 37 °C. After overnight incubation, test compounds were added with 1% PBS/0.3% Tween 20 and the reference compound bortezomib was added with 0.1% DMSO. Negative controls were solvents alone, and positive control was 10 μM staurosporine. After 72 h of incubation at 37 °C, 5 or 10% CO2 (dependent on the medium), and 1 h equilibration at room temperature, well plates were treated with CellTiter-Glo reagent (Promega) for an hour and luminescence was measured using a luminometer.
(§2) Table S1. In vitro activity against 22 different human cancer cell lines.
(§3) Sr. Cancer Activity (in M)
(§4) no. Cell line type Culture medium
(§5) The effect of investigated compounds on the proliferation of 22 different human cell lines is
(§6) Twenty of these 22 cell lines represent specific cancer types and 2 were non-cancerous. Peptide
(§7) Anticancer drug bortezomib was used as the […]

MDA MB 435 = assay: cells; assay type: cell-based, human; conditions: Homo sapiens, MDA-MB-435; Melanoma; RPMI-1640 +10% FCS; 72 hours; read-out: Activity (in M), IC50
Protocol: as §1, §2, §3, §4, §5, §6, §7

OVCAR-3 = assay: cells; assay type: cell-based, human; conditions: Homo sapiens, OVCAR-3; Ovarian; RPMI-1640 +10% FCS; 72 hours; read-out: Activity (in M), IC50
Protocol: as §1, §2, §3, §4, §5, §6, §7

RPMI 8226 = assay: cells; assay type: cell-based, human; conditions: Homo sapiens, RPMI-8226; Myeloma; RPMI-1640 +10% FCS; 72 hours; read-out: Activity (in M), IC50
Protocol: as §1, §2, §3, §4, §5, §6, §7

MSC_UC = assay: cells; assay type: cell-based; conditions: Homo sapiens; Non-cancerous; Promocell MSC-Medium C-28010 + Sup. C39810; 72 hours
Protocol: as §1, §2, §3, §4, §5, §6, §7

MDA MB 231 = assay: cells; assay type: cell-based; conditions: Homo sapiens, Breast, DMEM + 10% FCS, 72 hours
Protocol: as §1, §2, §3, §4, §5, §6, §7

T-47D = assay: cells; assay type: cell-based; conditions: Homo sapiens, T47D; Breast; RPMI-1640 +10% FCS + 0,2U/mL Insulin; 72 hours
Protocol: as §1, §2, §3, §4, §5, §6, §7

Caki-1 = assay: cells; assay type: cell-based; conditions: Homo sapiens, Kidney, DMEM + 10% FCS, 72 hours
Protocol: as §1, §2, §3, §4, §5, §6, §7

U251MG = assay: cells; assay type: cell-based; conditions: Homo sapiens, U-251; Brain; DMEM + 10% FCS; 72 hours
Protocol: as §1, §2, §3, §4, §5, §6, §7

A498 = assay: cells; assay type: cell-based; conditions: Homo sapiens, Kidney, DMEM + 10% FCS, 72 hours
Protocol: as §1, §2, §3, §4, §5, §6, §7

K562 = assay: cells; assay type: cell-based; conditions: Homo sapiens, Leukemia, RPMI-1640 + 10% FCS, 72 hours
Protocol: as §1, §2, §3, §4, §5, §6, §7

H460 = assay: cells; assay type: cell-based; conditions: Homo sapiens, NCI-H460; Lung; DMEM + 10% FCS; 72 hours
Protocol: as §1, §2, §3, §4, §5, §6, §7

HCT116 = assay: cells; assay type: cell-based; conditions: Homo sapiens, HCT-116; Colorectal; DMEM + 10% FCS; 72 hours
Protocol: as §1, §2, §3, §4, §5, §6, §7

A549 = assay: cells; assay type: cell-based; conditions: Homo sapiens, Lung, DMEM + 10% FCS, 72 hours
Protocol: as §1, §2, §3, §4, §5, §6, §7

SK-OV3 = assay: cells; assay type: cell-based; conditions: Homo sapiens, SK-OV-3; Ovarian; DMEM + 10% FCS; 72 hours
Protocol: as §1, §2, §3, §4, §5, §6, §7

PC3 = assay: cells; assay type: cell-based; conditions: Homo sapiens, PC-3; Prostate; DMEM + 10% FCS; 72 hours
Protocol: as §1, §2, §3, §4, §5, §6, §7

MOLT-4 = assay: cells; assay type: cell-based; conditions: Homo sapiens, Leukemia, DMEM + 10% FCS, 72 hours
Protocol: as §1, §2, §3, §4, §5, §6, §7

MCF-7 = assay: cells; assay type: cell-based; conditions: Homo sapiens, MCF7; Breast; DMEM + 10% FCS; 72 hours
Protocol: as §1, §2, §3, §4, §5, §6, §7

NHDF = assay: cells; assay type: cell-based; conditions: Homo sapiens; Non-cancerous; Promocell NHDF-Medium C-23010 + Sup. C39315; 72 hours
Protocol: as §1, §2, §3, §4, §5, §6, §7

HL-60 = assay: cells; assay type: cell-based; conditions: Homo sapiens, Leukemia, RPMI-1640 + 10% FCS, 72 hours
Protocol: as §1, §2, §3, §4, §5, §6, §7

SW620 = assay: cells; assay type: cell-based; conditions: Homo sapiens, SW-620; Colorectal; DMEM + 10% FCS; 72 hours
Protocol: as §1, §2, §3, §4, §5, §6, §7

DU-145 = assay: cells; assay type: cell-based; conditions: Homo sapiens, Prostate, DMEM + 10% FCS, 72 hours
Protocol: as §1, §2, §3, §4, §5, §6, §7

E. coli (TOP10) = assay: Broth microdilution antimicrobial susceptibility assay; assay type: cell-based, Escherichia coli; conditions: Escherichia coli; 24 h, MHB
Text: (§8) To test antimicrobial activity, all peptides were initially screened, in a broth microdilution assay, against Gram-negative Escherichia coli (TOP10) and Gram-positive Staphylococcus carnosus (CCM 4838T) Biosafety Level 1 (BSL-1) bacteria (Table 2). […] Four other mutants (LP3, LP26, LP36, and LP39) had higher activity than LP1 against E. coli, and two mutants (LP23 and LP32) had higher activity than LP1 against S. carnosus. Six mutants (LP29, LP30, LP31, LP33, LP40, and LP43) were not active against one or both bacteria, even at the highest concentration tested (50 μM).
(§9) Antimicrobial activity against E. coli TOP10 and S. carnosus CCM 4838T was tested using the broth microdilution assay. Bacteria were cultured in MHA Petri dish for 24 h, subcultured in an MHB test tube for 6 h at 37 °C, and diluted to 10^6 CFU/mL (OD600). […] Dilution series was prepared for concentrations 50 to 0.1 μM in a flat-bottom 96-well plate, inoculated with bacteria, and incubated for 24 h at 37 °C. Growth control wells were free from test compounds, and sterility control wells were free from bacteria. Bacterial MIC was determined as the lowest concentration of test compounds that inhibited visible growth of bacteria (i.e., no visible turbidity).

S. carnosus (CCM 4838T) = assay: microbe, parasite or virus in culture; assay type: cell-based, Staphylococcus carnosus; conditions: Staphylococcus carnosus; 24 h, MHB; read-out: Antimicrobial activity (MIC) S. carnosus (CCM 4838T)
Text: as §8, §9

ESKAPEE pathogens [1] = assay: MIC against five commercially available ESKAPEE strains (Figure 3a); assay type: cell-based
Protocol: First, LP1 and five mutants (LP3, LP8, LP18, LP22, and LP28) were tested against five commercially available ESKAPEE strains (Figure 3a). Promising activity was obtained against Gram-negative Acinetobacter baumannii (GSAB 164), which is resistant to colistin and meropenem, followed by a quality control strain of E. coli (ATCC 25922). Micromolar activity, i.e., MIC of 1 μM, was obtained with both LP1 and LP18.
(Protocol a) Antimicrobial activity test against ESKAPEE strains S. aureus NRS 1, K. pneumoniae ATCC 700603, A. baumannii GSAB 164, P. aeruginosa NCTC 13437, and E. coli ATCC 25922 was purchased from Evotec (UK).

ESKAPEE pathogens [2] = assay: MIC against nine ampicillin-resistant ESKAPEE strains (Figure 3d); assay type: cell-based; conditions: 72 h
ESKAPEE pathogens [3] = assay: MIC against six reference strains of ESKAPEE pathogens (Figure 3b); assay type: cell-based
Text: The effect of net charge was further investigated against six reference strains of ESKAPEE pathogens (Figure 3b).

CC(C)C[C@H](NC(=O)[C@H](Cc1ccccc1)NC(=O)c1cnccn1)B(O)O [Bortezomib]
IC50 (HCT-15): 9.8 nM | IC50 (MDA MB 435): 4.3 nM | IC50 (OVCAR-3): 4 nM | IC50 (RPMI 8226): 3.2 nM | IC50 (MSC_UC): 4.7 nM | IC50 (MDA MB 231): 12 nM | IC50 (T-47D): 8.6 nM | IC50 (Caki-1): 12 nM | IC50 (U251MG): 19 nM | IC50 (A498): 9.1 nM | IC50 (K562): 9.1 nM | IC50 (H460): 26 nM | IC50 (HCT116): 6.9 nM | IC50 (A549): 25 nM | IC50 (SK-OV3): 19 nM | IC50 (PC3): 16 nM | IC50 (MOLT-4): 4 nM | IC50 (MCF-7): 21 nM | IC50 (NHDF): 14 nM | IC50 (HL-60): 4.1 nM | IC50 (SW620): 10 nM | IC50 (DU-145): 16 nM

CC1(C)S[C@@H]2[C@H](NC(=O)[C@H](N)c3ccccc3)C(=O)N2[C@H]1C(=O)O [Ampicillin]
MIC (E. coli (TOP10)): 12.5 µM (≈ 4.37 µg/mL) | MIC (S. carnosus (CCM 4838T)): 0.1 µM (≈ 0.0349 µg/mL) | MIC (ESKAPEE pathogens [1]): > 180 µM | MIC (ESKAPEE pathogens [2]): > 360 µM | MIC (ESKAPEE pathogens [3]): > 92 µM
